The text below walks through data of patent US7629310B2, “RhoB as a suppressor of cancer cell growth, cell transformation, and metastasis” (University of South Florida, priority 2000, dated 2009).

The subject of assay [1] is A-549 cells. The assay is described as follows: Anoikis assay in A-549 cells. It counts as cell-based, human. As to conditions: A-549, poly-HEMA plates, 24 hr; control 40%. As to the method:
Anoikis Assay. Cells were collected by trypsinization, washed twice with PBS, and re-suspended in serum-free medium containing 0.5% BSA; 5.0×10^5 cells were then seeded in triplicates into 60-mm plates pre-coated with poly(2-hydroxyethylmethacrylate) (poly-HEMA, SIGMA) according to the data sheet of the agents. 24 hrs later the cellular viability was determined by trypan blue exclusion.

For a further assay, the system named is B16-F10 melanoma cells. The assay is described as follows: Melanoma metastasis assay (B16-F10 cells injected into tail vein). It counts as in vivo, mouse. As to conditions: transfected B16-F10 cells, C57 black mice, after 3 weeks, pcDNA3 control 14.8±1.9. The method, then:
Parental NIH3T3 cells (FIG. 10A) were transiently transfected with pcDNA3 vector, HRas61L, or Akt in the presence or absence of RhoA, RhoB, or pcDNA3 for 36 hours. The cells were then split and cultured in DMEM medium containing 2 μM 5-FU for another 48 hours. The cells were then examined for their susceptibility to 5-FU-induced apoptosis by Annexin V labeling and flow cytometry apoptosis assays as described in the Materials and Methods section. 36 hours after the transfection, a fraction of the cells from FIG. 10A were washed and re-suspended in serum-free medium and seeded into the pre-coated plates and examined for viability at different time points by Annex V and 7-AAD labeling, as shown in FIG. 10B. In FIG. 10B, the bars at each time point (0, 12, 24 hrs), left-to-right, correspond to PCD, H-Ras, AKT, RhoA, RhoB, Akt+RhoA, and Akt+RhoB, respectively. […]
Melanoma Metastasis Assay. pcDNA3, pcDNA-RhoB and pcDNA-RhoA were transfected into B16-F10 cells similarly as described above. The cells were harvested 20 hours post-transfection; 5×10^5 cells from each group were analyzed for transfection efficiency by Western Blotting; another 5×10^5 cells were injected into the tail veins of C57/B16 mice (6 wk, F). The mice were sacrificed at the indicated intervals and the nodules growing in the lungs were counted.

A further assay concerns H-Ras/3T3 cells. The experiment in a line: Migration through collagen type I coated transfilters, H-Ras/3T3 cells. As to conditions: H-Ras/3T3 cells (FIG. 8B). It counts as cell-based. As to the method:
Parental NIH3T3 (FIG. 8A) were transiently transfected with pcDNA3 vector control, H-Ras61L, CA-PI3K, or CA-Akt in the presence or absence of RhoA or RhoB or pcDNA3 for 36 hours. The cells were then split and cultured for another 4 weeks. The plates were examined for focus formation by staining. H-Ras/3T3 cells (FIG. 8B) and PANC-1 cells (FIG. 8C) were transiently transfected with pcDNA3 vector control, CA-Akt, or WT-Akt in the presence or absence of RhoA, RhoB, or pcDNA3 for 36 hours. The cells were then split and analyzed for their migration capabilities through collagen type I coated transfilters as described in the Materials and Methods section. NIH3T3 cells (FIGS. 8D and 8E) were transiently transfected with pcDNA3 vector control, H-Ras61L, CA-Akt, or WT-Akt in the presence or absence of RhoA, RhoB, or pcDNA3 for 36 hours. The monolayers were then scratched with a 20 μl pipette tip and micro-photographed at the time points indicated for analyzing their capability to migrate into and fill the wounded area.

The subject of a further assay is H-Ras/NIH3T3 cells. The experiment in a line: Cell proliferation, H-Ras-transformed NIH3T3. It counts as cell-based. As to conditions: H-Ras-transformed NIH3T3, 0-96 hours. As to the method:
Cell Proliferation. Cells were collected and examined for cell number by trypan blue exclusion and hemocytometer counting under microscope at 0 h, 24 h, 48 h, 72 h and 96 h. All the samples were performed in triplicate and the averages of 3 independent experiments were reported.

In another assay the test system is MMP-2. The assay is described as follows: MMP-2 expression in conditioned medium of PANC-1 and PC3 cells (Western blotting). It counts as cell-based, human. The conditions noted are these: conditioned medium (FIG. 9C). The method, then:
HRas/3T3 cells (FIG. 9A) and PANC-1 cells (FIG. 9B) were transiently transfected with pcDNA3 vector control, H-Ras61L, CA-Akt, or WT-Akt in the presence or absence of RhoA, RhoB, or pcDNA3 for 36 hours. The cells were then split and analyzed for their invading capabilities through […]-coated transfilters as described in the Materials and Methods section. PANC-1 and PC3 cells (FIG. 9C) were transiently transfected with pcDNA3, with H-Ras61L in the presence or absence of RhoA, or RhoB for 36 hours. The cells were then serum-starved for another 36 hours; the conditioned medium was collected and 20 μg protein were analyzed for MMP-2 expression by Western Blotting.
One pivotal step in these processes is the ability of cancer cells to cut through the extracellular matrix. This is accomplished by a cascade of proteinases, among which matrix metalloproteinases (MMPs) play a pivotal role (Yoon, S. O. et al., J Biochem Mol Biol, 2003, 36:128-37; Stamenkovic, I. Semin Cancer Biol, 2000, 10:415-33). […] To this end, PANC-1 and PC3 cells were treated with LY294002, or transfected with pcDNA3-RhoA or RhoB, and the conditioned culture medium was collected and analyzed for MMP-2 expression by anti-MMP-2 Western blotting as described in the Materials and Methods section.

In assay [2] the test system is A-549 cells. The assay is described as follows: Focus/colony formation of A-549 cells in G418 medium. It counts as cell-based, human. The conditions noted are these: transfected A-549 cells, 3 weeks. As to the method:
Focus Formation Assay. NIH3T3 cells were seeded into 60-mm plates (1×10^6 cell/per plate) one day prior to gene transfection. […] Two days after transfection, the cells were seeded into 60-mm plates at a density of 2.5×10^3/per plate, and maintained in DMEM medium containing 1.5% CBS. The medium was changed every 3 days. 3-4 weeks later the cells were washed once with PBS and once with PBS/methanol (1:1), then washed with fresh anhydrous methanol and covered with crystal violet stain for 1 min at room temperature. Finally, the stain was displaced with water. The focus formation assay for A-549 cells was similarly performed as above except that following the transfection the cells were cultured in DMEM complete medium containing 400 μg/ml of geneticin (G418, […], Inc.). 3 weeks later, the cells were fixed with anhydrous methanol and stained with crystal violet; the plates were photographed. All the samples were performed in triplicate and a representative of 3 independent experiments was reported in the figure(s) and averages±standard deviation reported in the table.

For the substance “RhoB: low molecular weight GTPase; wild-type RhoB subcloned into HA-tagged pcDNA3 and ectopically expressed by transfection”, the “cell death on deprivation of substratum attachment (anoikis)” value with A-549 cells [1] came to 78%. Moreover, the “metastatic colonies per lung” value in the assay with B16-F10 melanoma cells is listed as 2±0.7. In addition, in the assay on H-Ras/3T3 cells, the “ability to migrate through collagen type I” value is on record as “dramatically hindered”. Moreover, the growth rate result in the assay with H-Ras/NIH3T3 cells is “inhibited the growth rate”. Moreover, the MMP-2 protein secreted result in the assay with MMP-2 was “remarkably reduced”. The number of colonies in the assay with A-549 cells [2] is listed as 178+/−19.
With “RhoA: closely related family member sharing 86% sequence identity with RhoB; wild-type, in HA-tagged pcDNA3, transfected as control”, the “cell death on deprivation of substratum attachment (anoikis)” value in the assay with A-549 cells [1] is listed as “protected these cells from anoikis”. In addition, the “metastatic colonies per lung” value in the assay on B16-F10 melanoma cells is reported as 13±4.5. In addition, the “ability to migrate through collagen type I” value in the assay on H-Ras/3T3 cells was “migrated”. For the same substance, the growth rate result with H-Ras/NIH3T3 cells is on record as “enhanced the rate of growth”. For the same substance, the MMP-2 protein secreted result in the assay with MMP-2 was “increased MMP-2 levels, but to a lesser extent”. Further, the number of colonies in the assay with A-549 cells [2] is given as 593+/−43.
